Our source for the TGI values is PubChem BioAssay (NCI).

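Where inhibition never reached the appropriate level, the endpoint shown equals the highest concentration tested. Otherwise, values were interpolated linearly from a five-concentration, 48-hour dose response in 96-well plates. TGI: concentration producing complete growth inhibition.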 Where a SMILES comes first, the peptide text is derived from it. [ ]: non-standard residue; d: D form. The star is where a group is joined. ξ: configuration not given here. NMeY = CN[C@@H](Cc1ccc(O)cc1)C(=O)O; Cbz = O=C(OCc1ccccc1)*; ξA = CC(N)C(=O)O

Among the test systems are SF-539 CNS; OVCAR-4 ovarian; MDA-MB-231 breast; SR leukemia; T-47D breast; OVCAR-8 ovarian; HCT-116 colon; A549 NSCLC; NCI-H460 lung; K-562 leukemia; SF-268 CNS; MCF7 breast; M14 melanoma; ACHN renal; HL-60(TB) leukemia; SK-MEL-5 melanoma; NCI/ADR-RES ovarian; UACC-257 melanoma; U251 CNS.
What all share (test): inhibition of tumour cell growth, NCI panel, 48 h

Consider `COC(=O)c1cc(/C=C/C(=O)Cc2ccccc2)cn1S(=O)(=O)c1ccccc1`, for which the TGI in the test with SF-539 CNS, in the test on OVCAR-4 ovarian, with MDA-MB-231 breast, with SR leukemia, in the test on T-47D breast and with OVCAR-8 ovarian was above 100 µM throughout. Further, the TGI in the test with HCT-116 colon, with A549 NSCLC, with NCI-H460 lung, in the test on K-562 leukemia, with SF-268 CNS and in the test with MCF7 breast was above 100 µM in each case. Besides, the TGI in the test with M14 melanoma, with ACHN renal, with HL-60(TB) leukemia, with SK-MEL-5 melanoma, in the test on NCI/ADR-RES ovarian and with UACC-257 melanoma was above 100 µM throughout.
With `COc1ccc(C[C@@H](C(=O)N[C@@H](C)C(N)=O)N(C)C(=O)[C@@H]2CCCN2C(=O)[C@H](CC(C)C)NC(=O)C(C)NC(=O)OCc2ccccc2)cc1` (stereo not given in full) (Cbz-[ξA]LP[NMeY](Me)A-NH2), the TGI with SF-539 CNS, in the test on OVCAR-4 ovarian, with MDA-MB-231 breast, with U251 CNS, with SR leukemia and in the test with T-47D breast was above 100 µM throughout. In addition, the TGI with OVCAR-8 ovarian, with HCT-116 colon, in the test on A549 NSCLC, with NCI-H460 lung, in the test on K-562 leukemia and with SF-268 CNS was above 100 µM in each case. For the same compound, the TGI with MCF7 breast, in the test on M14 melanoma, with ACHN renal, in the test with HL-60(TB) leukemia, with SK-MEL-5 melanoma and in the test on NCI/ADR-RES ovarian was above 100 µM throughout.
As for `CN(C)c1n2c3ccc([N+](=O)[O-])cc3n3c(N(C)C)[n+]4ccccc4c3c2c2cccc[n+]12`, the TGI in the test with OVCAR-4 ovarian, with MDA-MB-231 breast, with U251 CNS, in the test on SR leukemia, in the test on T-47D breast and with OVCAR-8 ovarian was above 100 µM throughout. In addition, the TGI in the test with HCT-116 colon, in the test with A549 NSCLC, in the test with NCI-H460 lung, in the test with K-562 leukemia, with SF-268 CNS and with MCF7 breast was above 100 µM each time. Besides, the TGI in the test on M14 melanoma, in the test with ACHN renal, in the test with HL-60(TB) leukemia, in the test on SK-MEL-5 melanoma, with NCI/ADR-RES ovarian and with UACC-257 melanoma was above 100 µM throughout.
Turning to `CCOC(=O)N1c2ccccc2N(C(=O)OCC)C1CC(=O)/C=C/c1ccccc1`, the TGI in the test on OVCAR-4 ovarian is 6.33 µM; in the test with MDA-MB-231 breast, above 100 µM; in the test with U251 CNS it was 12.8 µM; with SR leukemia, 5.75 µM; with T-47D breast it was above 100 µM; with OVCAR-8 ovarian, 8.63 µM. For the same compound, the TGI in the test on HCT-116 colon is 11.6 µM; in the test on A549 NSCLC it was 18.1 µM; in the test with NCI-H460 lung, 11.1 µM; in the test with K-562 leukemia it was above 30.7 µM; in the test on SF-268 CNS, 9.82 µM; in the test on MCF7 breast, 13.6 µM. The TGI with M14 melanoma came out at 19.3 µM; in the test on ACHN renal, 15.7 µM; in the test with HL-60(TB) leukemia, 6.94 µM; with SK-MEL-5 melanoma, 8.92 µM; in the test with NCI/ADR-RES ovarian it was 9.77 µM; in the test on UACC-257 melanoma, 21.9 µM.
Turning to `CC(C)(C)OC(=O)N(O)CCCn1cnc2c(NC3CC3)ncnc21`, the TGI with SF-539 CNS, in the test with OVCAR-4 ovarian, in the test on MDA-MB-231 breast, in the test on U251 CNS, with SR leukemia and in the test on T-47D breast was above 100 µM in each case. The TGI in the test on OVCAR-8 ovarian, in the test on HCT-116 colon, with A549 NSCLC, with NCI-H460 lung, in the test on K-562 leukemia and in the test with SF-268 CNS was above 100 µM throughout. The TGI in the test on MCF7 breast, in the test with M14 melanoma, in the test with ACHN renal, in the test with SK-MEL-5 melanoma, in the test with NCI/ADR-RES ovarian and in the test on UACC-257 melanoma was above 100 µM in each case.
In the case of `Cc1nn(CNc2ccc(F)c(Cl)c2)c(=S)n1/N=C/c1ccc(-c2ccc(Cl)cc2Cl)o1`, the TGI worked out at 34.8 µM in the test on SF-539 CNS; 50 µM with OVCAR-4 ovarian; 34.9 µM in the test with MDA-MB-231 breast; 29 µM in the test with U251 CNS; 14.7 µM in the test on SR leukemia; 58.8 µM in the test on T-47D breast. The TGI turned out to be 48.5 µM in the test on OVCAR-8 ovarian; 30.7 µM in the test on HCT-116 colon; 33.7 µM with NCI-H460 lung; 15.5 µM with K-562 leukemia; 34.6 µM in the test with SF-268 CNS; 37.3 µM in the test on MCF7 breast. The TGI in the test with M14 melanoma amounted to 36.9 µM; in the test on ACHN renal it was 30.7 µM; in the test with HL-60(TB) leukemia, 16.9 µM; in the test with SK-MEL-5 melanoma, 35.1 µM; in the test on NCI/ADR-RES ovarian, 44.5 µM; in the test on UACC-257 melanoma it was 46.9 µM.
As to `O=C1CSC(c2ccccc2)N1c1ccc(-c2ccc(-n3c(-c4ccccc4)nc4ccccc4c3=O)cc2)cc1` (stereo not given), the TGI with OVCAR-4 ovarian, in the test on MDA-MB-231 breast, in the test on U251 CNS, with SR leukemia, in the test with T-47D breast and with OVCAR-8 ovarian was above 100 µM in each case. For the same compound, the TGI in the test with A549 NSCLC, in the test on NCI-H460 lung, in the test on K-562 leukemia, with SF-268 CNS, with MCF7 breast and with M14 melanoma was above 100 µM each time. Also, the TGI in the test on ACHN renal, with HL-60(TB) leukemia, in the test on SK-MEL-5 melanoma, with NCI/ADR-RES ovarian and in the test with UACC-257 melanoma was above 100 µM in each case.
